# Results reported in the supplement of paper PMC12420376.
# Tests used:
# [1] = tested on: KURAMOCHI; test: drug sensitivity score (DSS2) on cancer cell count; higher = more sensitive; extreme values may be limits of the assay; settings: 72 h
# Outline: (§1)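 Screen quality was checked by Z', and a drug sensitivity score was derived in Breeze from logistic fits of the cancer cell counts. These counts were obtained by imaging at 10× (4 fields) after fixing and immunostaining for CK8/18 with Hoechst. Before that, ovarian cancer cells, alone or in 1:1 direct co-culture with lung or skin fibroblasts, had been treated for 72 h on 384-well plates acoustically pre-spotted with 528 approved and investigational compounds at 5 concentrations.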
# [2] = tested on: OVCAR8; test: as above; settings: 72 h
# Outline: as §1
# [3] = co-cultured fibroblast: BJHTERT
# [4] = co-cultured fibroblast: none (monoculture)
compound,measurement,setting,value
C#Cc1cccc(Nc2ncnc3cc(OCCOC)c(OCCOC)cc23)c1 [Erlotinib],drug sensitivity score,[1]; [3],1.1 DSS
same,drug sensitivity score,[1]; co-cultured fibroblast: WI38,2.6 DSS
same,drug sensitivity score,[1]; [4],0.4 DSS
same,drug sensitivity score,[2]; [3],3.1 DSS
same,drug sensitivity score,[2]; co-cultured fibroblast: WI38,0 DSS
same,drug sensitivity score,[2]; [4],5 DSS
CC(C)(C)c1cc(NC(=O)Nc2ccc(-c3cn4c(n3)sc3cc(OCCN5CCOCC5)ccc34)cc2)no1 [Quizartinib],drug sensitivity score,[1]; [3],0 DSS
same,drug sensitivity score,[1]; co-cultured fibroblast: WI38,0 DSS
same,drug sensitivity score,[1]; [4],0 DSS
same,drug sensitivity score,[2]; [3],3.6 DSS
same,drug sensitivity score,[2]; co-cultured fibroblast: WI38,6.2 DSS
same,drug sensitivity score,[2]; [4],0 DSS
CN(Cc1cnc2nc(N)nc(N)c2n1)c1ccc(C(=O)N[C@@H](CCC(=O)O)C(=O)O)cc1 [Methotrexate],drug sensitivity score,[1]; [3],5.9 DSS
same,drug sensitivity score,[1]; co-cultured fibroblast: WI38,0 DSS
same,drug sensitivity score,[1]; [4],19.7 DSS
same,drug sensitivity score,[2]; [3],12.3 DSS
same,drug sensitivity score,[2]; co-cultured fibroblast: WI38,12.4 DSS
same,drug sensitivity score,[2]; [4],27.7 DSS
COc1cc2c(NC3CCN(C(C)C)CC3)nc(C3CCCCC3)nc2cc1OCCCN1CCCC1 [UNC0638],drug sensitivity score,[1]; [3],4.4 DSS
same,drug sensitivity score,[1]; co-cultured fibroblast: WI38,1.8 DSS
same,drug sensitivity score,[1]; [4],0 DSS
same,drug sensitivity score,[2]; [3],7.1 DSS
same,drug sensitivity score,[2]; co-cultured fibroblast: WI38,0 DSS
same,drug sensitivity score,[2]; [4],0.1 DSS
CCCc1cc(C)[nH]c(=O)c1CNC(=O)c1cc(-c2ccnc(N3CCN(C)CC3)c2)cc2c1cnn2C(C)C [GSK343],drug sensitivity score,[1]; [3],0 DSS
same,drug sensitivity score,[1]; co-cultured fibroblast: WI38,0 DSS
same,drug sensitivity score,[1]; [4],0 DSS
same,drug sensitivity score,[2]; [3],1 DSS
same,drug sensitivity score,[2]; co-cultured fibroblast: WI38,0 DSS
same,drug sensitivity score,[2]; [4],0 DSS
CC(C)C(=O)Nc1ccc([N+](=O)[O-])c(C(F)(F)F)c1 [Flutamide],drug sensitivity score,[1]; [3],0 DSS
same,drug sensitivity score,[1]; co-cultured fibroblast: WI38,1.3 DSS
same,drug sensitivity score,[1]; [4],0 DSS
same,drug sensitivity score,[2]; [3],0 DSS
same,drug sensitivity score,[2]; co-cultured fibroblast: WI38,0 DSS
same,drug sensitivity score,[2]; [4],0 DSS
CCC1(c2ccc(N)cc2)CCC(=O)NC1=O (stereo unspecified) [Aminoglutethimide],drug sensitivity score,[1]; [3],5.8 DSS
same,drug sensitivity score,[1]; co-cultured fibroblast: WI38,0 DSS
same,drug sensitivity score,[1]; [4],0 DSS
same,drug sensitivity score,[2]; [3],0 DSS
same,drug sensitivity score,[2]; co-cultured fibroblast: WI38,0.4 DSS
same,drug sensitivity score,[2]; [4],0 DSS
COc1cc2c(cc1-c1c(C)noc1C)ncc1[nH]c(=O)n([C@H](C)c3ccccn3)c12 [I-BET151],drug sensitivity score,[1]; [3],9.5 DSS
same,drug sensitivity score,[1]; co-cultured fibroblast: WI38,9.4 DSS
same,drug sensitivity score,[1]; [4],6.3 DSS
same,drug sensitivity score,[2]; [3],14.1 DSS
same,drug sensitivity score,[2]; co-cultured fibroblast: WI38,4 DSS
same,drug sensitivity score,[2]; [4],15.9 DSS
CNC(=O)c1cccc2cc(Oc3ccnc4cc(OCC5(N)CC5)c(OC)cc34)ccc12 [Lucitanib],drug sensitivity score,[1]; [3],4.3 DSS
same,drug sensitivity score,[1]; co-cultured fibroblast: WI38,4.3 DSS
same,drug sensitivity score,[1]; [4],2.4 DSS
same,drug sensitivity score,[2]; [3],3.3 DSS
same,drug sensitivity score,[2]; co-cultured fibroblast: WI38,6 DSS
same,drug sensitivity score,[2]; [4],3.4 DSS
COc1ccc(-c2ccc3ncc4c(c3c2)n(-c2ccc(N3CCNCC3)c(C(F)(F)F)c2)c(=O)n4C)cn1 [NVP-BGT226],drug sensitivity score,[1]; [3],18.2 DSS
same,drug sensitivity score,[1]; co-cultured fibroblast: WI38,19.5 DSS
same,drug sensitivity score,[1]; [4],18.3 DSS
same,drug sensitivity score,[2]; [3],19.5 DSS
same,drug sensitivity score,[2]; co-cultured fibroblast: WI38,12 DSS
same,drug sensitivity score,[2]; [4],21.7 DSS
C=CCN(/C=C1/C(=O)O[C@H](COC)[C@@]2(C)C1=C(O)C(=O)C1=C2[C@H](OC(C)=O)C[C@]2(C)C(=O)CC[C@@H]12)CC=C [Sonolisib],drug sensitivity score,[1]; [3],0 DSS
same,drug sensitivity score,[1]; co-cultured fibroblast: WI38,1.5 DSS
same,drug sensitivity score,[1]; [4],0 DSS
same,drug sensitivity score,[2]; [3],0 DSS
same,drug sensitivity score,[2]; co-cultured fibroblast: WI38,0 DSS
same,drug sensitivity score,[2]; [4],0 DSS
C/C(=C\c1csc(C)n1)[C@@H]1C[C@@H]2O[C@]2(C)CCC[C@H](C)[C@H](O)[C@@H](C)C(=O)C(C)(C)[C@@H](O)CC(=O)N1 [Ixabepilone],drug sensitivity score,[1]; [3],4.9 DSS
same,drug sensitivity score,[1]; co-cultured fibroblast: WI38,4.6 DSS
same,drug sensitivity score,[1]; [4],0.8 DSS
same,drug sensitivity score,[2]; [3],5.8 DSS
same,drug sensitivity score,[2]; co-cultured fibroblast: WI38,5.6 DSS
same,drug sensitivity score,[2]; [4],3.6 DSS
CON(C)C(=O)N1N=C(c2cc(F)ccc2F)S[C@@]1(CCCN)c1ccccc1 [Filanesib],drug sensitivity score,[1]; [3],21.4 DSS
same,drug sensitivity score,[1]; co-cultured fibroblast: WI38,22.4 DSS
same,drug sensitivity score,[1]; [4],16.2 DSS
same,drug sensitivity score,[2]; [3],21.9 DSS
same,drug sensitivity score,[2]; co-cultured fibroblast: WI38,32.9 DSS
same,drug sensitivity score,[2]; [4],29.3 DSS
C=CC(=O)Nc1cccc(Nc2nc(Nc3ccc(OCCOC)cc3)ncc2F)c1 [Spebrutinib],drug sensitivity score,[1]; [3],0 DSS
same,drug sensitivity score,[1]; co-cultured fibroblast: WI38,0 DSS
same,drug sensitivity score,[1]; [4],0 DSS
same,drug sensitivity score,[2]; [3],0 DSS
same,drug sensitivity score,[2]; co-cultured fibroblast: WI38,0 DSS
same,drug sensitivity score,[2]; [4],0 DSS
CCCCNc1ncc(C(=O)NCc2ccc(-n3ccnc3)cc2)c(NC2CCC(O)CC2)n1 (stereo unspecified) [UNC2881],drug sensitivity score,[1]; [3],2.4 DSS
same,drug sensitivity score,[1]; co-cultured fibroblast: WI38,3 DSS
same,drug sensitivity score,[1]; [4],0.4 DSS
same,drug sensitivity score,[2]; [3],0.2 DSS
same,drug sensitivity score,[2]; co-cultured fibroblast: WI38,1.1 DSS
same,drug sensitivity score,[2]; [4],0 DSS
O=C(/C=C\n1cnc(-c2cc(C(F)(F)F)cc(C(F)(F)F)c2)n1)NNc1ccccn1 [Verdinexor],drug sensitivity score,[1]; [3],8.4 DSS
same,drug sensitivity score,[1]; co-cultured fibroblast: WI38,9.1 DSS
same,drug sensitivity score,[1]; [4],16.7 DSS
same,drug sensitivity score,[2]; [3],10.2 DSS
same,drug sensitivity score,[2]; co-cultured fibroblast: WI38,7.1 DSS
same,drug sensitivity score,[2]; [4],16.6 DSS
CC(O)c1cc(C(=O)N[C@@H](C)Cn2ccc(-c3ccc(C#N)c(Cl)c3)n2)n[nH]1 (stereo partly specified) [ODM-201],drug sensitivity score,[1]; [3],1.3 DSS
same,drug sensitivity score,[1]; co-cultured fibroblast: WI38,0 DSS
same,drug sensitivity score,[1]; [4],3.7 DSS
same,drug sensitivity score,[2]; [3],0.5 DSS
same,drug sensitivity score,[2]; co-cultured fibroblast: WI38,0 DSS
same,drug sensitivity score,[2]; [4],0 DSS
CNc1nc(-c2ccc3c(N)n[nH]c3c2)cc(N2C[C@@H](C(=O)NC3CCCCC3)CC[C@H]2C)n1,drug sensitivity score,[1]; [3],3.2 DSS
same,drug sensitivity score,[1]; co-cultured fibroblast: WI38,3.1 DSS
same,drug sensitivity score,[1]; [4],6.5 DSS
same,drug sensitivity score,[2]; [3],1.3 DSS
same,drug sensitivity score,[2]; co-cultured fibroblast: WI38,0.1 DSS
same,drug sensitivity score,[2]; [4],2.8 DSS
CC/C(=C(\c1ccc(O)cc1)c1ccc(OCCN(C)C)cc1)c1ccccc1 [4-hydroxytamoxifen],drug sensitivity score,[1]; [3],4.8 DSS
same,drug sensitivity score,[1]; co-cultured fibroblast: WI38,1.8 DSS
same,drug sensitivity score,[1]; [4],2.2 DSS
same,drug sensitivity score,[2]; [3],0.2 DSS
same,drug sensitivity score,[2]; co-cultured fibroblast: WI38,0 DSS
same,drug sensitivity score,[2]; [4],4.9 DSS
CCCOc1ccn2c(C(C)=O)cc(-c3ccccc3S(C)(=O)=O)c2c1 [GSK2801],drug sensitivity score,[1]; [3],0 DSS
same,drug sensitivity score,[1]; co-cultured fibroblast: WI38,0 DSS
same,drug sensitivity score,[1]; [4],0.9 DSS
same,drug sensitivity score,[2]; [3],0 DSS
same,drug sensitivity score,[2]; co-cultured fibroblast: WI38,0 DSS
same,drug sensitivity score,[2]; [4],0 DSS
O=C(O)CC[C@H]1CC[C@@](c2cc(F)ccc2F)(S(=O)(=O)c2ccc(Cl)cc2)CC1 [MK-0752],drug sensitivity score,[1]; [3],0 DSS
same,drug sensitivity score,[1]; co-cultured fibroblast: WI38,0 DSS
same,drug sensitivity score,[1]; [4],0 DSS
same,drug sensitivity score,[2]; [3],3.7 DSS
same,drug sensitivity score,[2]; co-cultured fibroblast: WI38,0 DSS
same,drug sensitivity score,[2]; [4],0 DSS
O[C@H]1CC[C@H](Nc2ncc3nc(Nc4c(F)cc(F)cc4F)n([C@H]4CCOC4)c3n2)CC1 [Tanzisertib],drug sensitivity score,[1]; [3],2 DSS
same,drug sensitivity score,[1]; co-cultured fibroblast: WI38,0 DSS
same,drug sensitivity score,[1]; [4],0.2 DSS
same,drug sensitivity score,[2]; [3],1.4 DSS
same,drug sensitivity score,[2]; co-cultured fibroblast: WI38,0 DSS
same,drug sensitivity score,[2]; [4],1 DSS
Nc1nc(Cl)nc2c1ncn2[C@H]1C[C@H](O)[C@@H](CO)O1 [Cladribine],drug sensitivity score,[1]; [3],5.2 DSS
same,drug sensitivity score,[1]; co-cultured fibroblast: WI38,6.7 DSS
same,drug sensitivity score,[1]; [4],1.4 DSS
same,drug sensitivity score,[2]; [3],14.7 DSS
same,drug sensitivity score,[2]; co-cultured fibroblast: WI38,20.7 DSS
same,drug sensitivity score,[2]; [4],15.7 DSS
Cc1cc(F)c(C(=O)Nc2cccc(-c3nncn3C(C)C)n2)cc1-n1cnc(C2CC2)c1 [Selonsertib],drug sensitivity score,[1]; [3],0 DSS
same,drug sensitivity score,[1]; co-cultured fibroblast: WI38,0 DSS
same,drug sensitivity score,[1]; [4],0 DSS
same,drug sensitivity score,[2]; [3],0 DSS
same,drug sensitivity score,[2]; co-cultured fibroblast: WI38,0 DSS
same,drug sensitivity score,[2]; [4],0 DSS
NC[C@@](O)(c1ccc(Cl)cc1)c1ccc(-c2cn[nH]c2)cc1,drug sensitivity score,[1]; [3],0 DSS
same,drug sensitivity score,[1]; co-cultured fibroblast: WI38,4.2 DSS
same,drug sensitivity score,[1]; [4],3 DSS
same,drug sensitivity score,[2]; [3],3.3 DSS
same,drug sensitivity score,[2]; co-cultured fibroblast: WI38,10.7 DSS
same,drug sensitivity score,[2]; [4],5.1 DSS
N[C@@H]1CCCN(c2c(/C=C3\SC(=O)NC3=O)cccc2-c2ccccc2)C1 [AZD1208],drug sensitivity score,[1]; [3],0 DSS
same,drug sensitivity score,[1]; co-cultured fibroblast: WI38,1.7 DSS
same,drug sensitivity score,[1]; [4],1.3 DSS
same,drug sensitivity score,[2]; [3],0 DSS
same,drug sensitivity score,[2]; co-cultured fibroblast: WI38,0 DSS
same,drug sensitivity score,[2]; [4],1.8 DSS
